Data reported in patent US12478605B2, “Biochanin a derivatives for treatment of BEST1-related retinopathies” (Universität Regensburg, priority 2020, dated 2025).

Target: T1, mutant BEST1 R218C (Homo sapiens, UniProt O76090, R218C)
T1 construct: expressed in transfected cells
T1 sequence (O76090 1-585 R218C): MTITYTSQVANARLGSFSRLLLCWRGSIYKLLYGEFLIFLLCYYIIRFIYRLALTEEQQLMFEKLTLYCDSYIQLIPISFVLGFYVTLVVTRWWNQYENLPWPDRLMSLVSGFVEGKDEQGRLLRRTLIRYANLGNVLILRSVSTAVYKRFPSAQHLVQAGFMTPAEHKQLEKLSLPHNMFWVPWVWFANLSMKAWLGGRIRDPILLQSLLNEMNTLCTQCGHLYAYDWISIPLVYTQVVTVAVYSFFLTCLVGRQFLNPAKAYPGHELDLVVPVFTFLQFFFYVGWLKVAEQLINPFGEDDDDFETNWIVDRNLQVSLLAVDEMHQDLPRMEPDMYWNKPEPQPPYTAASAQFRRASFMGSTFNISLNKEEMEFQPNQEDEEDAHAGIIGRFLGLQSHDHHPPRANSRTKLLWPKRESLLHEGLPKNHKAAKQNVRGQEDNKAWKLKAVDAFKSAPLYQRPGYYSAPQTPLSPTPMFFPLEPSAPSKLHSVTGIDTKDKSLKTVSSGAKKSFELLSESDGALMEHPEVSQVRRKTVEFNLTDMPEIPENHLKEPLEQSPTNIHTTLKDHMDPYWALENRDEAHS
Test: YFP-halide transport assay (I- influx), MDCKII cells expressing mutant BEST1-R218C
Format: cell-based
Experimental: Human hiPSC-RPE or MDCKII cells were transduced via lentivirus particles which were produced by co-transfecting HEK293T cells with the yellow fluorescence protein (YFPH148Q/I152L)-pLJM1 and helper plasmids pMD2.G and psPAX2 using the Ca^2+ phospate transfection method. After six weeks of cultivation in 96-well black microtiter plates, cells were incubated with 100 mM Cl^− containing solution and basal YFP fluorescence was measured in a Tecan microplate reader. Subsequently Cl^− was replaced with equimolar I^− and decrease of YFP fluorescence intensity was monitored for another 2 min in 10 sec intervals.
To analyze BEST1-mediated anion transport in the cell lines generated in the previous examples, a well-established halide transport assay (Galietta et al., 2001) was adapted. […] Addition of I— leads to specific YFP quenching over time and changes of fluorescence intensities can be monitored on a plate reader. MDCKII cells were incubated with 100 mM Cl— containing solution and steady state YFP fluorescence signal intensities were measured after 6 minutes. Subsequently, Cl— was replaced by equimolar I— and anion permeability was monitored by decreasing YFP intensities as a result of BEST1-mediated I— influx in a time course up to 2 minutes (FIG. 2B). For several independent BEST1 wildtype cell lines a fast kinetic of decreasing fluorescence intensities to ˜30 to 40% was observed while the untransfected control cell lines remained flat (FIGS. 2C and D).
Example 8—Evaluation of BioA(C2H3O2)2 activity in MDCKII cells MDCKII cells co-expressing YFP and BEST1 wildtype or mutant p.(R218C) were seeded on black 96-well plates and cultivated for 6 days to achieve polarity, a requirement for correct basolateral localization of BEST1 in epithelial cells. Compounds were tested separately at 10 μM concentration in a 96-well format. After compound addition for 24 h, cells were subjected to an inwardly directed I— gradient to drive I— influx and produce decreasing (quenched) fluorescence signals. […]

## COc1ccc(-c2coc3cc(OC(C)=O)cc(OC(C)=O)c3c2=O)cc1 [Biochanin A diacetate, 3-(4-Methoxyphenyl)-4oxo-4H-chromene-5,7-diyl diacetate]
MDCKII cells, FIG. 4A, comparison of Biochanin A derivatives
  effect on BEST1 anion transport activity: greatest effect
MDCKII mutant BEST1-R218C, various concentrations from 2 μM to 20 μM, 24 h, FIG. 4C
  anion transport activity (I- influx): strongly
